Experimental findings from patent EP0908457B1, “3-(1,2-benzisothiazol- and isoxazol-5-Y1)-2,4(1H,3H)-pyrimidinedione or thione and 3-(1,2-benzisothiazol- and isoxazol-5-y1)-4(3H)-pyrimidinone or thione herbicidal agents” (BASF AKTIENGESELLSCHAFT, priority 1997, dated 1999) are described below.

The test system of one data set is Cyperus iria. In words: Preemergence weed control under flooded paddy conditions, CYPIR (Rice Flatsedge). On herbicidal effect rating, CYPIR: meaning of each grade not given here. It counts as in vivo. To be noted: flooded paddy.
Data set [1] relates to Cyperus serotinus, Rottb. In words: Preemergence weed control under flooded paddy conditions, CYPSE (Flatsedge). On herbicidal effect rating, CYPSE: meaning of each grade not given here. It counts as in vivo.
Data set [2] relates to Monochoria vaginalis, Presl. The experiment in a line: Preemergence weed control under flooded paddy conditions, MOOVA (Monochoria). On herbicidal effect rating, MOOVA: meaning of each grade not given here. The class given is in vivo. To be noted: flooded paddy.
Data set [3] concerns Oryza sativa, (L.) Tebonnet. The experiment in a line: Rice tolerance to post-transplant applications under flooded paddy conditions (Example 187), ORYSAT (Rice, Tebonnet). On herbicidal effect rating ORYSAT: meaning of each grade not given here.
The subject of a further data set is Sagittaria pygmaea, L. The experiment in a line: Preemergence weed control under flooded paddy conditions, SAGPY (Arrowhead (Pygmaea)). On herbicidal effect rating, SAGPY: meaning of each grade not given here. The class given is in vivo. The conditions noted are these: flooded paddy.
Data set [4] has as its system Echinochloa oryzoides (Ard.) Fritsch. In words: Preemergence weed control under flooded paddy conditions, ECHORC (Watergrass (Calif.)). On herbicidal effect rating, ECHORC: meaning of each grade not given here. The conditions noted are these: flooded paddy. The class given is in vivo.
The mark [5] stands for this setting: Rate 0.0320 kg/ha, preemergence, rated three to four weeks after treatment.
Setting [6] is: Rate 0.0620 kg/ha, preemergence, rated three to four weeks after treatment.
[7] abbreviates: Rate 0.1250 kg/ha, preemergence, rated three to four weeks after treatment.
Where [8] appears, read: Rate 0.2500 kg/ha, preemergence, rated three to four weeks after treatment.
The mark [9] stands for this setting: Rate 0.0320 kg/ha, rated three to four weeks after treatment.
[10] abbreviates: Rate 0.0620 kg/ha, rated three to four weeks after treatment.
[11] abbreviates: Rate 0.1250 kg/ha, rated three to four weeks after treatment.
[12] abbreviates: Rate 0.2500 kg/ha, rated three to four weeks after treatment.
[13] abbreviates: Rate 0.0320 kg/ha, preemergence weeds, rated three to four weeks after treatment.
Where [14] appears, read: Rate 0.0620 kg/ha, preemergence weeds, rated three to four weeks after treatment.
The mark [15] stands for this setting: Rate 0.1250 kg/ha, preemergence weeds, rated three to four weeks after treatment.
Setting [16] is: Rate 0.2500 kg/ha, preemergence weeds, rated three to four weeks after treatment.
[17] abbreviates: Rate 0.0320 kg/ha, preemergence, rated 3-4 weeks after treatment.
Setting [18] is: Rate 0.0620 kg/ha, preemergence, rated 3-4 weeks after treatment.
The mark [19] stands for this setting: Rate 0.1250 kg/ha, preemergence, rated 3-4 weeks after treatment.
[20] abbreviates: Rate 0.2500 kg/ha, preemergence, rated 3-4 weeks after treatment.
The mark [21] stands for this setting: Rate 0.0313 kg/ha, preemergence, rated three to four weeks after treatment.
Setting [22] is: Rate 0.0625 kg/ha, preemergence, rated three to four weeks after treatment.
[23] abbreviates: 0.0320 kg/ha, preemergence, rated three to four weeks after treatment.
The mark [24] stands for this setting: 0.0620 kg/ha, preemergence, rated three to four weeks after treatment.
Setting [25] is: 0.1250 kg/ha, preemergence, rated three to four weeks after treatment.
Setting [26] is: 0.2500 kg/ha, preemergence, rated three to four weeks after treatment.

Structures are written as SMILES.

`Cn1c(C(F)(F)F)cc(=O)n(-c2ccc3snc(COS(=O)(=O)c4ccccc4)c3c2)c1=O` [Example 382, 2,4(1H,3H)-Pyrimidinedione, 3-[3-(hydroxymethyl)-1,2-benzisothiazol-5-yl]-1-methyl-6-(trifluoromethyl)-, benzenesulfonate (ester)]: the “herbicidal effect rating, CYPIR” value was 5.0 with Cyperus iria (setting [5]), 6.0 in the data set on Cyperus iria (setting [6]), 7.0 with Cyperus iria (setting [7]) and 9.0 in the data set on Cyperus iria (setting [8]). In addition, the “herbicidal effect rating, CYPSE” value in data set [1] (setting [5]) was 0.0; in data set [1] (setting [6]), 0.0; in data set [1] (setting [7]), 7.0; in data set [1] (setting [8]), 7.0. The “herbicidal effect rating, MOOVA” value in data set [2] (setting [5]), in data set [2] (setting [6]), in data set [2] (setting [7]) and in data set [2] (setting [8]) was 9.0 throughout. In addition, the “herbicidal effect rating ORYSAT” value was found to be 5.0 in data set [3] (setting [9]), 6.0 in data set [3] (setting [10]), 6.0 in data set [3] (setting [11]) and 5.0 in data set [3] (setting [12]). The “herbicidal effect rating, SAGPY” value is 3.0 in the data set on Sagittaria pygmaea, L. (setting [5]); 4.0 with Sagittaria pygmaea, L. (setting [6]); 7.0 in the data set with Sagittaria pygmaea, L. (setting [7]); 9.0 in the data set with Sagittaria pygmaea, L. (setting [8]). Further, the “herbicidal effect rating, ECHORC” value in data set [4] (setting [5]) came to 0.0; in data set [4] (setting [6]), 3.0; in data set [4] (setting [7]), 4.0; in data set [4] (setting [8]), 7.0.

Consider `CONC(=O)COc1ccc(C)cc1-c1nsc2ccc(-n3c(=O)cc(C(F)(F)F)n(C)c3=O)cc12` [Example 316, Acetamide, 2-{{2-{5-[3,6-dihydro-3-methyl-2,6-dioxo-4-(trifluoromethyl)-1(2H)-pyrimidinyl]-1,2-benzisothiazol-3-yl}-p-tolyl}oxy}-N-methoxy-], for which the “herbicidal effect rating, CYPIR” value was 8.5 with Cyperus iria (setting [13]), 7.5 in the data set on Cyperus iria (setting [14]), 7.5 in the data set on Cyperus iria (setting [15]) and 6.0 in the data set on Cyperus iria (setting [16]). The “herbicidal effect rating, CYPSE” value in data set [1] (setting [13]) worked out at 1.0; in data set [1] (setting [14]) it was 4.5; in data set [1] (setting [15]), 4.5; in data set [1] (setting [16]), 0.0. The “herbicidal effect rating, MOOVA” value was 8.0 in data set [2] (setting [13]), 9.0 in data set [2] (setting [14]), 9.0 in data set [2] (setting [15]) and 9.0 in data set [2] (setting [16]). In addition, the “herbicidal effect rating ORYSAT” value in data set [3] (setting [9]) is reported as 4.5; in data set [3] (setting [10]) it was 4.0; in data set [3] (setting [11]), 4.5; in data set [3] (setting [12]) it was 4.0. The “herbicidal effect rating, SAGPY” value with Sagittaria pygmaea, L. (setting [13]) is recorded as 0.0; in the data set on Sagittaria pygmaea, L. (setting [14]) it was 3.0; in the data set on Sagittaria pygmaea, L. (setting [15]), 1.0; with Sagittaria pygmaea, L. (setting [16]) it was 3.0. In addition, the “herbicidal effect rating, ECHORC” value in data set [4] (setting [13]) was determined as 5.5; in data set [4] (setting [14]), 9.0; in data set [4] (setting [15]) it was 9.0; in data set [4] (setting [16]) it was 9.0.

For `Cn1c(C(F)(F)F)cc(=O)n(-c2ccc3snc(/C=C/C(=O)c4ccccc4)c3c2)c1=O` [Example 564, 2,4(1H,3H)-Pyrimidinedione, 1-methyl-3-[3-(3-oxo-3-phenylpropenyl)-1,2-benzisothiazol-5-yl]-6-(trifluoromethyl)-, (E)-], the “herbicidal effect rating, CYPIR” value with Cyperus iria (setting [17]) amounted to 6.0; with Cyperus iria (setting [18]), 6.0; in the data set on Cyperus iria (setting [19]), 7.0; in the data set on Cyperus iria (setting [20]) it was 9.0. The “herbicidal effect rating, CYPSE” value in data set [1] (setting [17]) is listed as 0.0; in data set [1] (setting [18]), 0.0; in data set [1] (setting [19]), 0.0; in data set [1] (setting [20]), 4.0. The “herbicidal effect rating, MOOVA” value in data set [2] (setting [17]), in data set [2] (setting [18]), in data set [2] (setting [19]) and in data set [2] (setting [20]) was 9.0 each time. Further, the “herbicidal effect rating ORYSAT” value turned out to be 0.0 in data set [3] (Rate 0.0320 kg/ha, rated 3-4 weeks after treatment); 0.0 in data set [3] (Rate 0.0620 kg/ha, rated 3-4 weeks after treatment); 0.0 in data set [3] (Rate 0.1250 kg/ha, rated 3-4 weeks after treatment); 0.0 in data set [3] (Rate 0.2500 kg/ha, rated 3-4 weeks after treatment). Moreover, the “herbicidal effect rating, SAGPY” value is given as 0.0 in the data set on Sagittaria pygmaea, L. (setting [17]); 0.0 in the data set on Sagittaria pygmaea, L. (setting [18]); 0.0 with Sagittaria pygmaea, L. (setting [19]); 0.0 in the data set with Sagittaria pygmaea, L. (setting [20]). Besides, the “herbicidal effect rating, ECHORC” value was 4.0 in data set [4] (setting [17]), 4.0 in data set [4] (setting [18]), 5.0 in data set [4] (setting [19]) and 7.0 in data set [4] (setting [20]).

Take `C=C(C)C1CC=C(COCc2nsc3ccc(-n4c(=O)ccn(C)c4=O)cc23)CC1` (stereo not shown) [Example 211, 1-Methyl-3-{3-{{[4-(1-methylvinyl)-1-cyclohexen-1-yl]methoxy}methyl}-1,2-benzisothiazol-5-yl}-2,4(1H,3H)-pyrimidinedione]: the “CYPIR herbicidal effect rating” value with Cyperus iria (setting [21]) is listed as 0.0; in the data set on Cyperus iria (setting [22]), 0.0; with Cyperus iria (setting [7]), 4.0; in the data set with Cyperus iria (setting [8]) it was 4.0. Further, the “CYPSE herbicidal effect rating” value in data set [1] (setting [21]), in data set [1] (setting [22]), in data set [1] (setting [7]) and in data set [1] (setting [8]) was 0.0 in each case. The “MOOVA herbicidal effect rating” value in data set [2] (setting [21]), in data set [2] (setting [22]), in data set [2] (setting [7]) and in data set [2] (setting [8]) was 9.0 in each case. In addition, the “ORYSAT herbicidal effect rating” value is listed as 2.0 in data set [3] (Rate 0.0313 kg/ha, rated three to four weeks after treatment); 2.0 in data set [3] (Rate 0.0625 kg/ha, rated three to four weeks after treatment); 2.0 in data set [3] (setting [11]); 3.0 in data set [3] (setting [12]). The “SAGPY herbicidal effect rating” value with Sagittaria pygmaea, L. (setting [21]) turned out to be 0.0; with Sagittaria pygmaea, L. (setting [22]), 0.0; with Sagittaria pygmaea, L. (setting [7]) it was 0.0; in the data set on Sagittaria pygmaea, L. (setting [8]), 0.0. The “ECHORC herbicidal effect rating” value in data set [4] (setting [21]) turned out to be 2.0; in data set [4] (setting [22]) it was 4.0; in data set [4] (setting [7]), 7.0; in data set [4] (setting [8]), 9.0.

Consider `Cn1c(C(F)(F)F)cc(=O)n(-c2ccc3snc(C(=O)NO)c3c2)c1=O` [Example 471, 1,2-Benzisothiazole-3-carbohydroxamic acid, 5-[3,6-dihydro-3-methyl-2,6-dioxo-4-(trifluoromethyl)-1(2H)-pyrimidinyl]-], for which the CYPIR herbicidal rating in the data set on Cyperus iria (setting [23]) came out at 6.0; in the data set on Cyperus iria (setting [24]), 6.0; in the data set with Cyperus iria (setting [25]) it was 9.0; in the data set with Cyperus iria (setting [26]), 9.0. Besides, the values for the CYPSE herbicidal rating in data set [1] (setting [23]) and in data set [1] (setting [26]) were 3.0 and 7.0, respectively. In addition, the MOOVA herbicidal rating in data set [2] (setting [23]) came out at 6.0; in data set [2] (setting [24]), 7.0; in data set [2] (setting [25]), 9.0; in data set [2] (setting [26]) it was 9.0. Also, the “ORYSAT herbicidal rating (rice tolerance)” value stood at 2.0 in data set [3] (0.0320 kg/ha, rated three to four weeks after treatment); 3.0 in data set [3] (0.0620 kg/ha, rated three to four weeks after treatment); 5.0 in data set [3] (0.1250 kg/ha, rated three to four weeks after treatment); 5.0 in data set [3] (0.2500 kg/ha, rated three to four weeks after treatment). Besides, the SAGPY herbicidal rating is on record as 0.0 in the data set on Sagittaria pygmaea, L. (setting [23]); 3.0 in the data set on Sagittaria pygmaea, L. (setting [24]); 5.0 in the data set with Sagittaria pygmaea, L. (setting [25]); 7.0 with Sagittaria pygmaea, L. (setting [26]). The ECHORC herbicidal rating in data set [4] (setting [23]) amounted to 0.0; in data set [4] (setting [24]), 3.0; in data set [4] (setting [25]), 6.0; in data set [4] (setting [26]), 9.0.
